Source: publication PMC6958422 (Pharmaceuticals, 2019)

What was measured:
hA2A AR = target: T1, hA2A AR (Homo sapiens, UniProt P29274); assay: [3H]ZM241385 competition binding to hA2A CHO cell membranes; conditions: for I% hA2A: percentage of inhibition at 1µM, [3H]ZM241385; for Ki: [3H]ZM241385, hA2A CHO cells, means ± SEM
T1 construct: expressed in transfected cells; host or cells: CHO cells
Description: (§1) CHO cells transfected with hA1, hA2A, hA2B, and hA3 ARs were grown adherently and maintained in Dulbecco’s modified Eagle’s medium (Sigma-Aldrich, Milan, Italy) with nutrient mixture F12, containing 10% fetal calf serum, penicillin (100 U/mL), streptomycin (100 μg/mL), l-glutamine (2 mM) and geneticin (G418; 0.2 mg/mL) at 37°C in 5% CO2/95% air until the use in cAMP assays. For membrane preparation, the culture medium was removed, and the cells were washed with phosphate-buffered saline and scraped off T75 flasks in ice-cold hypotonic buffer (5 mM Tris HCl, 1 mM EDTA, pH 7.4). The cell suspension was homogenized with a Polytron, centrifuged for 30 min at 40000 g at 4°C, and the resulting membrane pellet was used for competition binding experiments.
(§2) All synthesized compounds have been tested for their affinity to hA1, hA2A, and hA3 ARs. Competition experiments to hA1 ARs were carried out incubating 1 nM [^3H]-8-cyclopentyl-1,3-dipropylxanthine ([^3H]-DPCPX) with membrane suspension (50 μg of protein/100 μL) and different concentrations of the examined compounds at 25°C for 90 min in 50 mM Tris HCl, pH 7.4. […] Inhibition experiments to hA2A ARs were performed incubating the radioligand [^3H]-ZM241385 (4-(2-[7-Amino-2-(2-furyl)[1,2,4]triazolo[2,3-a][1,3,5]triazin-5-ylamino]ethyl)phenol) (1 nM) with the membrane suspension (50 μg of protein/100 μL) and different concentrations of the examined compounds for 60 min at 4°C in 50 mM Tris HCl (pH 7.4), 10 mM MgCl2. Non-specific binding was determined in the presence of ZM241385 (1 μM) and was about 20% of the total binding. Competition binding experiments to A3 ARs were carried out incubating the membrane suspension (50 μg of protein/100 μL) with 0.5 nM [^125I]-N^6-(4-aminobenzyl)-N-methylcarboxamidoadenosine ([^125I]-ABMECA) in the presence of different concentration of the examined compounds for an incubation time of 120 min at 4°C in 50 mM Tris HCl (pH 7.4), 10 mM MgCl2, and 1 mM EDTA. Non-specific binding was defined as binding in the presence of 1μM ABMECA and was always < 10% of the total binding. Bound and free radioactivity were separated by filtering the assay mixture through Whatman GF/B glass fiber filters using a Brandel cell harvester (Brandel Instruments, Unterföhring, Germany). The filter bound radioactivity was counted by Packard Tri Carb 2810 TR scintillation counter (Perkin Elmer, Boston, MA, USA).
(§3) The protein concentration was determined according to a Bio-Rad method with bovine albumin as a standard reference. Inhibitory binding constant (Ki) values were calculated from those of IC50 according to Cheng & Prusoff equation Ki = IC50/(1+[C*]/KD*), where [C*] is the concentration of the radioligand and KD* its dissociation constant. Ki and IC50 values were calculated by non-linear regression analysis using the equation for a sigmoid concentration-response curve (Graph-PAD Prism, San Diego, CA, USA).

hA2B AR = target: T2, hA2B AR (Homo sapiens, UniProt P29275); assay: cAMP assay, stimulation of cAMP production in hA2B CHO cells (agonism); assay type: cell-based; conditions: for Emax at 1 µM: CHO, compound at 1µM, in comparison with NECA (1µM = 100%), read-out: Efficacy hA2B (cAMP assays) (converted); for EC50: hA2B CHO cells, means ± SEM of four assays
T2 construct: expressed in transfected cells; host or cells: CHO cells
T2 sequence (P29275 1-332): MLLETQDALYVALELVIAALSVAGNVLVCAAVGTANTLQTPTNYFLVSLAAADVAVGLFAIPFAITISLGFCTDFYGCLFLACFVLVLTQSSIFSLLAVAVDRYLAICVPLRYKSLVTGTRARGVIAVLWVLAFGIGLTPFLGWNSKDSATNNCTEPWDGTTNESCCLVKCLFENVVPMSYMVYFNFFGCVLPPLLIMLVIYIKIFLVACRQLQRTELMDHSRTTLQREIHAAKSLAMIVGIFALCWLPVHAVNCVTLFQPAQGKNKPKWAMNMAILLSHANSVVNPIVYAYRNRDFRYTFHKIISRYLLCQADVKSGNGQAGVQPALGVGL
Description: The amino-3,5-dicyanopyridines 1–20 were tested for their affinity at hA1, hA2A, and hA3 ARs, stably transfected in Chinese Hamster Ovary (CHO) cells, and were also studied as hA2B agonists by evaluating their stimulatory effect on cAMP production in CHO cells, stably expressing the hA2B AR.
as §1
CHO cells transfected with hAR subtypes were washed with phosphate-buffered saline, detached with trypsin and centrifuged for 10 min at 200 g. Cells were seeded in 96-well white half-area microplate (Perkin Elmer, Boston, USA) in a stimulation buffer composed of Hank Balanced Salt Solution (Sigma-Aldrich, Milan, Italy), 5 mM HEPES, 0.5 mM Ro 20-1724, and 0.1% BSA. cAMP levels were then quantified by using the AlphaScreen cAMP Detection Kit (Perkin Elmer) following the manufacturer’s instructions. At the end of the experiments, plates were read with the Perkin Elmer EnSight Multimode Plate Reader.

hA3 AR = target: T3, hA3 AR (Homo sapiens, UniProt P0DMS8); assay: [125I]AB-MECA competition binding to hA3 CHO cell membranes; conditions: for Ki: hA3 CHO cells, means ± SEM; for inhibition at 1 µM: percentage of inhibition at 1µM
T3 construct: expressed in transfected cells; host or cells: CHO cells
T3 sequence (P0DMS8 1-318): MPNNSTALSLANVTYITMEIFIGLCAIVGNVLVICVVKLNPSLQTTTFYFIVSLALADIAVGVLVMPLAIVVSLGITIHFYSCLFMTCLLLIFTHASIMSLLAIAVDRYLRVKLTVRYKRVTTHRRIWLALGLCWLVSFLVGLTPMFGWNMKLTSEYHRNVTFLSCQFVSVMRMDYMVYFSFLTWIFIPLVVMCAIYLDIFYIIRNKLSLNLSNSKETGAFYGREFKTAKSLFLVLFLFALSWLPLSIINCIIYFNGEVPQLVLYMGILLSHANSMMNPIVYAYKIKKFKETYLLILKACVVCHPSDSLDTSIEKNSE
Description: as §1, §2, §3

hA1 AR = target: T4, hA1 AR (Homo sapiens, UniProt P30542); assay: [3H]DPCPX competition binding to hA1 CHO cell membranes; conditions: for I% hA1: percentage of inhibition at 1µM, [3H]DPCPX
T4 construct: expressed in transfected cells; host or cells: CHO cells
T4 sequence (P30542 1-326): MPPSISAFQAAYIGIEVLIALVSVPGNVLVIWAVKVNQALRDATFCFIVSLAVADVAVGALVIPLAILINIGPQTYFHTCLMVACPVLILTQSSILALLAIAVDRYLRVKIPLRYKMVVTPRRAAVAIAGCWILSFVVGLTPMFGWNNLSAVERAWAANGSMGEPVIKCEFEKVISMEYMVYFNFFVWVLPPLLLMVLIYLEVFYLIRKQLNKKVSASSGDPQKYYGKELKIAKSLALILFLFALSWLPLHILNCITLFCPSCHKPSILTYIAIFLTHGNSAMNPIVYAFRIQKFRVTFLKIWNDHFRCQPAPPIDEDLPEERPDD
Description: as §1, §2, §3

T1 sequence (P29274 whole entry): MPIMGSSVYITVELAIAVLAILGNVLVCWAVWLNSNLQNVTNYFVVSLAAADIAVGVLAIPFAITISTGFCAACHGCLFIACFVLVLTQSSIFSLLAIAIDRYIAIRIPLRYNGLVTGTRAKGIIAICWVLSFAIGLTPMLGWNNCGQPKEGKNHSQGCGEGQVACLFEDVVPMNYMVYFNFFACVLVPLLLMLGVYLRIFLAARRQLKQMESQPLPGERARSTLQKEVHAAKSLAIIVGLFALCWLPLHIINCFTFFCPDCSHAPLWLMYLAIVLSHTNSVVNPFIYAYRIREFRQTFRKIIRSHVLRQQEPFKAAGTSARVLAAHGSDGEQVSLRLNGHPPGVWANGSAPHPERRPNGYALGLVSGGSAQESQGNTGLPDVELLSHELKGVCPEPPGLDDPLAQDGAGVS

Row | Compound | I% hA2A (hA2A AR) | melting point | Emax at 1 µM (hA2B AR) | EC50 (hA2B AR) | Ki (hA3 AR) | I% hA1 (hA1 AR) | inhibition at 1 µM (hA3 AR) | Ki (hA1 AR) | Ki (hA2A AR) | Pharmacological profile at hA2BAR (hA2B AR; cAMP assay)
1 | C=C(C)COc1ccc(-c2c(C#N)c(N)nc(SCc3ncc[nH]3)c2C#N)cc1 [Compound 4, 2-Amino-6-[(1H-imidazol-2-ylmethyl)sulfanyl]-4-{4-[(2-methylprop-2-en-1-yl)oxy]phenyl} pyridine-3,5-dicarbonitrile] | 1% | 224 to 226 °C | 14% | > 1000 nM |  |  | 8% | 77 ± 6 nM |  | 
2 | CC(=O)Nc1ccc(-c2c(C#N)c(N)nc(SCc3ncc[nH]3)c2C#N)cc1 [Compound 6, N-(4-{2-Amino-3,5-dicyano-6-[(1H-imidazol-2-ylmethyl)sulfanyl]pyridin-4-yl}phenyl) acetamide] |  | 275 to 278 °C | 100% | 12 ± 1 nM | 48 ± 4 nM |  |  | 83 ± 7 nM | 38 ± 3 nM | full agonist profile
3 | N#Cc1c(N)nc(SCc2ncc[nH]2)c(C#N)c1-c1ccc(C(F)(F)F)cc1 [Compound 9, 2-Amino-6-[(1H-imidazol-2-ylmethyl)sulfanyl]-4-[4-(trifluoromethyl)phenyl]pyridine-3,5-dicarbonitrile] | 32% | 233 to 235 °C (dec.) | 4% | > 1000 nM |  |  | 21% | 419 ± 32 nM |  | 
4 | Cc1ccc(-c2c(C#N)c(N)nc(SCc3ncc[nH]3)c2C#N)cc1 [Compound 10, 2-[(1H-Imidazol-2-il)metiltio]-6-ammino-4(4-metilfenil)piridina-3,5-dicarbonitrile] |  | 259 to 261 °C (dec.) | 78% | 78 ± 6 nM | 212 ± 19 nM |  |  | 5.32 ± 0.42 nM | 47 ± 4 nM | 
5 | N#Cc1c(N)nc(NCCO)c(C#N)c1-c1ccccc1 [Compound 15, 2-Amino-6-[(2-hydroxyethyl)amino]-4-phenylpyridine-3,5-dicarbonitrile] | 1% | 230 to 231 °C | 1% | > 1000 nM |  |  | 1% | 943 ± 87 nM |  | 
6 | COc1ccc(CCNc2nc(N)c(C#N)c(-c3ccccc3)c2C#N)cc1 [Compound 16, 2-Amino-6-{[2-(4-methoxyphenyl)ethyl]amino}-4-phenylpyridine-3,5-dicarbonitrile] | 1% |  | 1% | > 1000 nM |  | 1% | 1% |  |  | 
7 | N#Cc1c(N)nc(-n2ccnc2)c(C#N)c1-c1ccccc1 [Compound 17, 2-Amino-6-(1H-imidazol-1-yl)-4-phenylpyridine-3,5-dicarbonitrile] | 1% | 253 to 255 °C | 1% | > 1000 nM |  | 27% | 25% |  |  | 

Next, values leading:

Row | I% hA2A (hA2A AR) | melting point | Emax at 1 µM (hA2B AR) | EC50 (hA2B AR) | Ki (hA3 AR) | I% hA1 (hA1 AR) | inhibition at 1 µM (hA3 AR) | Ki (hA1 AR) | Ki (hA2A AR) | Pharmacological profile at hA2BAR (hA2B AR; cAMP assay) | Compound
8 | 4% | 214 to 216 °C | 12% | > 1000 nM | 574 ± 46 nM | 25% |  |  |  |  | N#Cc1c(N)nc(SCc2ncc[nH]2)c(C#N)c1-c1ccc(OCC2CCC2)cc1 [Compound 1, 2-Amino-4-[4-(cyclobutylmethoxy)phenyl]-6-[(1H-imidazol-2-ylmethyl)sulfanyl]pyridine-3,5-dicarbonitrile]
9 | 1% | 230 to 232 °C | 36% | 227 ± 21 nM |  | 26% | 1% |  |  |  | CC(C)COc1ccc(-c2c(C#N)c(N)nc(SCc3ncc[nH]3)c2C#N)cc1 [Compound 2, 2-Amino-6-[(1H-imidazol-2-ylmethyl)sulfanyl]-4-[4-(2-methylpropoxy)phenyl]pyridine-3,5-dicarbonitrile]
10 |  | 229 to 231 °C (dec.) | 32% | 109 ± 12 nM | 850 ± 62 nM |  |  | 30 ± 4 nM | 865 ± 68 nM |  | N#Cc1c(N)nc(SCc2ncc[nH]2)c(C#N)c1-c1ccc(Cl)cc1 [Compound 7, 2-Amino-4-(4-chlorophenyl)-6-[(1H-imidazol-2-ylmethyl)sulfanyl]pyridine-3,5-dicarbonitrile]
11 | 8% | 246 to 248 °C (dec.) | 44% | 260 ± 24 nM |  | 31% | 1% |  |  |  | N#Cc1c(N)nc(SCc2ncc[nH]2)c(C#N)c1Cc1ccccc1 [Compound 12, 2-Amino-4-benzyl-6-[(1H-imidazol-2-ylmethyl)sulfanyl]pyridine-3,5-dicarbonitrile]
12 |  | 267 to 269 °C (dec.) | 1% | > 1000 nM | 510 ± 53 nM |  |  | 74 ± 8 nM | 331 ± 32 nM |  | Cc1c(C#N)c(N)nc(SCc2ncc[nH]2)c1C#N [Compound 13, 2-Amino-6-[(1H-imidazol-2-ylmethyl)sulfanyl]-4-methylpyridine-3,5-dicarbonitrile]
13 |  | 208 to 210 °C | 1% | > 1000 nM |  |  | 19% | 140 ± 12 nM | 115 ± 10 nM |  | N#Cc1c(N)nc(NCc2ncc[nH]2)c(C#N)c1-c1ccccc1 [Compound 14, 2-Amino-6-[(1H-imidazol-2-ylmethyl)amino]-4-phenylpyridine-3,5-dicarbonitrile]
14 | 16% | 244 to 246 °C | 1% | > 1000 nM |  | 15% | 5% |  |  |  | N#Cc1cnc(N)c(C#N)c1-c1ccccc1 [Compound 18, 2-amino-4-phenylpyridine-3,5-dicarbonitrile]
